From patent US10828317B2, “Method of treating bacterial infections” (priority 2016, dated 2020)
Where two headings read alike, the source gives them in different places.

Assays:
A. baumannii EN007 = assay: MIC, WT (EN007 = EN0007); assay type: cell-based, Acinetobacter baumannii
E. coli EN012 = assay: MIC, WT; assay type: cell-based, Escherichia coli; settings: Escherichia coli, read-out: MIC
M. luteus EN0455 = assay: MIC; assay type: cell-based, Micrococcus luteus; settings: Micrococcus luteus, read-out: MIC
P. mirabilis EN0457 = assay: MIC; assay type: cell-based, Proteus mirabilis; settings: Proteus mirabilis, read-out: MIC
K. pneumoniae EN0463 = assay: MIC; assay type: cell-based, Klebsiella pneumoniae; settings: Klebsiella pneumoniae, read-out: MIC
E. coli EN0235 = assay: microbe, parasite or virus in culture; assay type: cell-based; settings: Escherichia coli
Citrobacter sp. EN0465 = assay: MIC; assay type: cell-based; settings: Citrobacter, read-out: MIC
P. aeruginosa EN0422 = assay: MIC; assay type: cell-based, Pseudomonas aeruginosa; settings: Pseudomonas aeruginosa, read-out: MIC
E. coli EN003 = assay: microbe, parasite or virus in culture; assay type: cell-based, Escherichia coli; settings: Escherichia coli, EN003, combination didanosine+trimethoprim+uridine, Table 10
K. pneumoniae EN0244 = assay: MIC, colistinR; assay type: cell-based; settings: Klebsiella pneumoniae, EN0244, combination didanosine+trimethoprim+uridine, Table 20; read-out: MIC
P. aeruginosa EN004 = assay: MIC, WT (EN004 = EN0004); assay type: cell-based, Pseudomonas aeruginosa
P. mirabilis ST19 EN0445 = assay: MIC; assay type: cell-based, Proteus mirabilis; settings: Proteus mirabilis, read-out: MIC
A. baumannii EN016 = assay: MIC, WT; assay type: cell-based, Acinetobacter baumannii; settings: Acinetobacter baumannii, read-out: MIC
E. coli EN001 = assay: MIC, WT (EN001 = EN0001, ATCC 25922); assay type: cell-based, Escherichia coli; settings: Escherichia coli, EN001, Combination 1 AZT+trimethoprim+uridine, Table 16; read-out: MIC
[1] = combination AZT+trimethoprim+uridine, Table 17B
[2] = combination FdUrd+trimethoprim+uridine, Table 19
[3] = combination didanosine+trimethoprim+uridine, Table 20

Measured: MIC

O=c1ccn([C@@H]2O[C@H](CO)[C@@H](O)[C@H]2O)c(=O)[nH]1 [Uridine, uridine]
6 mg/L: E. coli EN012; EN012, combination didanosine+trimethoprim+uridine, Table 10 | E. coli EN0235; EN0235, combination FdUrd+trimethoprim+uridine, Table 19 | E. coli EN003
> 1000 mg/L: A. baumannii EN007; Acinetobacter baumannii, EN007, combination AZT+trimethoprim+uridine, Table 6, read-out: MIC | Citrobacter sp. EN0465; SP.EN0465, combination AZT+trimethoprim+uridine, Table 6 | P. aeruginosa EN0422; EN0422, combination AZT+trimethoprim+uridine, Table 6 | P. aeruginosa EN004; Pseudomonas aeruginosa, EN004, combination AZT+trimethoprim+uridine, Table 6, read-out: MIC | P. mirabilis ST19 EN0445; ST19EN0445, combination AZT+trimethoprim+uridine, Table 6 | A. baumannii EN016; EN016, combination AZT+trimethoprim+uridine, Table 6
400 mg/L: A. baumannii EN016; EN016, combination FdUrd+trimethoprim+uridine, Table 8
16 mg/L: K. pneumoniae EN0463; EN0463, combination AZT+trimethoprim+uridine, Table 6
12.5 mg/L: K. pneumoniae EN0463; EN0463, Combination 1 AZT+trimethoprim+uridine, Table 16
200 mg/L: M. luteus EN0455; EN0455, Combination 1 AZT+trimethoprim+uridine, Table 16 | M. luteus EN0455; EN0455, combination FdUrd+trimethoprim+uridine, Table 8 | M. luteus EN0455; EN0455, combination didanosine+trimethoprim+uridine, Table 10 | P. mirabilis EN0457; EN0457, Combination 1 AZT+trimethoprim+uridine, Table 16
3 mg/L: E. coli EN012; EN012, combination FdUrd+trimethoprim+uridine, Table 8
500 mg/L: M. luteus EN0455; EN0455, combination AZT+trimethoprim+uridine, Table 6 | P. mirabilis EN0457; EN0457, combination AZT+trimethoprim+uridine, Table 6
>400 mg/L: A. baumannii EN007; [1] | A. baumannii EN007; [2] | A. baumannii EN007; [3] | P. aeruginosa EN004; [1] | P. aeruginosa EN004; [2] | P. aeruginosa EN004; [3]
6.4 mg/L: E. coli EN001
13 mg/L: E. coli EN0235; EN0235, combination didanosine+trimethoprim+uridine, Table 20
> 400 mg/L: A. baumannii EN007; Acinetobacter baumannii, EN007, Combination 1 AZT+trimethoprim+uridine, Table 16, read-out: MIC | A. baumannii EN007; Acinetobacter baumannii, EN007, Combination 2 AZT+trimethoprim+uridine+thymidine, Table 16, read-out: MIC | A. baumannii EN007; Acinetobacter baumannii, EN007, combination FdUrd+trimethoprim+uridine, Table 8, read-out: MIC | A. baumannii EN007; Acinetobacter baumannii, EN007, combination didanosine+trimethoprim+uridine, Table 10, read-out: MIC | M. luteus EN0455; EN0455, Combination 2 AZT+trimethoprim+uridine+thymidine, Table 16 | P. mirabilis EN0457; EN0457, Combination 2 AZT+trimethoprim+uridine+thymidine, Table 16 | Citrobacter sp. EN0465; SP.EN0465, Combination 1 AZT+trimethoprim+uridine, Table 16 | Citrobacter sp. EN0465; SP.EN0465, Combination 2 AZT+trimethoprim+uridine+thymidine, Table 16 | Citrobacter sp. EN0465; SP.EN0465, combination FdUrd+trimethoprim+uridine, Table 8 | Citrobacter sp. EN0465; SP.EN0465, combination didanosine+trimethoprim+uridine, Table 10 | P. aeruginosa EN0422; EN0422, Combination 1 AZT+trimethoprim+uridine, Table 16 | P. aeruginosa EN0422; EN0422, Combination 2 AZT+trimethoprim+uridine+thymidine, Table 16 | P. aeruginosa EN0422; EN0422, combination FdUrd+trimethoprim+uridine, Table 8 | P. aeruginosa EN0422; EN0422, combination didanosine+trimethoprim+uridine, Table 10 | K. pneumoniae EN0244 | P. aeruginosa EN004; Pseudomonas aeruginosa, EN004, Combination 1 AZT+trimethoprim+uridine, Table 16, read-out: MIC | P. aeruginosa EN004; Pseudomonas aeruginosa, EN004, Combination 2 AZT+trimethoprim+uridine+thymidine, Table 16, read-out: MIC | P. aeruginosa EN004; Pseudomonas aeruginosa, EN004, combination FdUrd+trimethoprim+uridine, Table 8, read-out: MIC | P. aeruginosa EN004; Pseudomonas aeruginosa, EN004, combination didanosine+trimethoprim+uridine, Table 10, read-out: MIC | P. mirabilis ST19 EN0445; ST19EN0445, Combination 2 AZT+trimethoprim+uridine+thymidine, Table 16 | A. baumannii EN016; EN016, Combination 1 AZT+trimethoprim+uridine, Table 16 | A. baumannii EN016; EN016, Combination 2 AZT+trimethoprim+uridine+thymidine, Table 16 | A. baumannii EN016; EN016, combination didanosine+trimethoprim+uridine, Table 10
